# Measured values taken from patent US20240343733A1, “COMPOUNDS FOR TARGETING DEGRADATION OF IRAK4 PROTEINS” (BIOGEN MA INC., priority 2021, published 2024).
# Like-named read-outs stand apart in the source and are kept apart here.
# Assay: Pharmacokinetics (PK) in Male Beagle Dogs
# Assay type: in vivo
# Details: dog, plasma; for Vd: read-out: Vdss
# Description: Assay 3. Pharmacokinetics (PK) in Male Beagle Dogs
# The pharmacokinetic (PK) profile in plasma of two compounds of the present invention was determined in male beagle dogs following single dose IV (5 mg/kg) and PO (10 mg/kg) administration. This study was performed under non-GLP conditions, and unless otherwise stated, all analytical reagents were standard laboratory reagent grade.
# Male beagle dogs were housed individually and maintained in a controlled environment. Pedigree® standard dog chow (Pedigree India Private Ltd, Telangana, India) was provided once daily. Drinking water was available ad libitum. Environmental controls for the animal room were set to maintain a temperature range of 22-25° C., relative humidity range of 40-70%, and a 12-hour light/12-hour dark cycle. Normal healthy animals weighing 10±1 kg, certified by the attending veterinarian, were selected and acclimatized for a minimum of three days prior to initiation of study. Dogs were identified by chip number inserted at the neck region. The study protocol was reviewed and approved by the Institutional Animal Ethics Committee (IAEC).
# 2-[4-[[4-[1-(2,6-dioxo-3-piperidyl)-3-methyl-2-oxo-benzimidazol-5-yl]-1-piperidyl]methyl]cyclohexyl]-7-isopropoxy-N-pyrazolo[1,5-a]pyrimidin-3-yl-imidazo[1,2-a]pyridine-6-carboxamide, as described in Example 48 (“Compound 48”), and 2-((1R,4S)-4-((4-(1-(2,6-dioxopiperidin-3-yl)-3-methyl-2-oxo-2,3-dihydro-1H-benzo[d]imidazol-5-yl)piperidin-1-yl)methyl)cyclohexyl)-N-(1-((1S,2R)-2-fluorocyclopropyl)-2-oxo-1,2-dihydropyridin-3-yl)-7-isopropoxyimidazo[1,2-a]pyridine-6-carboxamide, as described in Example 169 (“Compound 169”), were each formulated by dissolving the compound in polyethylene glycol (PEG400) (10%) with stirring, followed by the slow addition of 11.11% 2-Hydroxypropyl-beta-cyclodextrin (HPβCD) (90%) in water. Vehicle dose was PEG400 (10%) and 11.11% HP-β-CD (90%) in water. Formulations and vehicle were freshly prepared on the day of dosing and stored at room temperature until used.
# All animals were weighed prior to drug administration. The animals were divided into intravenous (IV) group and per os (PO) group for each compound tested, with 3 animals in each group. The vehicle dosing group also included IV and PO groups, making a total of 6 groups of 3 animals each, for 18 animals total. The animals were restrained physically in sternal recumbently, on an examination table. The IV dose was administered by intravenous bolus injection into the cephalic vein and the PO dose was administered via gastric tube. The dosing volume was 1 mL/kg for IV groups and 2 mL/kg for PO groups. The dosing concentration was 5 mg/mL for both IV and PO groups respectively. The animals were fasted overnight and food was provided 4 hours post dose. […] Apart from this, animals were observed twice daily for any clinical signs, if any, and noted accordingly.
# From the vehicle treatment group, whole blood was collected for peripheral blood mononuclear cells (PBMC) isolation at Pre-dose, and at 2, 8, 24, 48, 72 and 96 hour timepoints. For both tested compounds IV and PO dosing groups, whole blood was collected for plasma isolation at Pre-dose, and 0.033, 0.083, 0.167, 0.33, 1, 2, 4, 6, 8, 24, 48, 72 and 96 hour timepoints. The anti-coagulant solution used was 6% (v/v) Sodium citrate (200 mM, pH 4.79) (pre-chilled tubes). The whole blood from both IV and PO compound treatment dosing groups collected at Pre-dose, 2, 8, 24, 48, 72 and 96 hours were subjected to PBMC isolation.
# For sample preparation, approximately 1-2 mL of whole blood was drawn from the peripheral vein and collected in labeled tubes containing lithium heparin, then stored on ice. The blood samples were centrifuged within 15 minutes to separate plasma at 1540 g at 4° C. for 10 minutes. The plasma was separated and transferred to pre-labeled microcentrifuge tubes and immediately frozen at −80±10° C. until bioanalysis. […]
"AUC(0-t) (5 mg/kg IV, mean) [ng·h/mL]","C0 (5 mg/kg IV, mean) [ng/mL]","clearance (5 mg/kg IV, mean) [mL/min/kg]","half-life (5 mg/kg IV, mean) [h]","Vd (5 mg/kg IV, mean) [L/kg]","AUC(0-t) (10 mg/kg PO, mean) [ng·h/mL]","Cmax (10 mg/kg PO, mean) [ng/mL]","bioavailability (10 mg/kg PO, mean) [%]","AUC(0-t) (5 mg/kg IV, mean (Table 5)) [ng·h/mL]","C0 (5 mg/kg IV, mean (Table 5)) [ng/mL]","clearance (5 mg/kg IV, mean (Table 5)) [mL/min/kg]","half-life (5 mg/kg IV, mean (Table 5)) [h]","Vd (5 mg/kg IV, mean (Table 5)) [L/kg]","AUC(0-t) (10 mg/kg PO, mean (Table 6)) [ng·h/mL]","Cmax (10 mg/kg PO, mean (Table 6)) [ng/mL]","bioavailability (10 mg/kg PO, mean (Table 6)) [%]",SMILES
1720,4180,46.3,34.5,58.5,242,33.9,7.02,–,–,–,–,–,–,–,–,"CC(C)Oc1cc2nc([C@H]3CC[C@H](CN4CCC(c5ccc6c(c5)n(C)c(=O)n6C5CCC(=O)NC5=O)CC4)CC3)cn2cc1C(=O)Nc1cnn2cccnc12 (stereo partly shown) [Compound 48, 2-[4-[[4-[1-(2,6-dioxo-3-piperidyl)-3-methyl-2-oxo-benzimidazol-5-yl]-1-piperidyl]methyl]cyclohexyl]-7-isopropoxy-N-pyrazolo[1,5-a]pyrimidin-3-yl-imidazo[1,2-a]pyridine-6-carboxamide]"
–,–,–,–,–,–,–,–,2210,3160,35,42.5,58,472,32.2,10.7,"CC(C)Oc1cc2nc([C@H]3CC[C@H](CN4CCC(c5ccc6c(c5)n(C)c(=O)n6C5CCC(=O)NC5=O)CC4)CC3)cn2cc1C(=O)Nc1cccn([C@H]2C[C@H]2F)c1=O (stereo partly drawn) [Compound 169, 2-((1R,4S)-4-((4-(1-(2,6-dioxopiperidin-3-yl)-3-methyl-2-oxo-2,3-dihydro-1H-benzo[d]imidazol-5-yl)piperidin-1-yl)methyl)cyclohexyl)-N-(1-((1S,2R)-2-fluorocyclopropyl)-2-oxo-1,2-dihydropyridin-3-yl)-7-isopropoxyimidazo[1,2-a]pyridine-6-carboxamide]"
